Experimental findings from US9410197B2, “Compound for sequencing by synthesis” (Roche Diagnostics Operations, Inc., priority 2013, dated 2016) are described below.

SMILES strings stand for the structures. Several values for one entry are separate records, joined by “and”; a condition that tells them apart may be missing. Equal values may be shown once.

The nature of data set [1]: Cleavage of the 3′-O-nitro group with cysteamine-NaOH. The format is physicochemical. The settings on record: aqueous cysteamine-NaOH (pH 9.0), 1.0 to 2.0 M cysteamine, after 5 minutes at 50° C. As for the experimental part:
10 to 100 nmol of 3′-O-nitro-thymidine 2 were dissolved in an aqueous solution of cysteamine-NaOH (pH 9.0) to obtain a final nucleoside concentration of 0.17 to 1.7 nmol/μL and a final cysteamine concentration of 1.0 to 2.0 M. Reaction control was performed via analytical reversed-phase chromatography using 0.1 M triethylammonium acetate (pH 7.0)/acetonitrile gradient as eluent.

Data set [2] deals with T1, Therminator II DNA polymerase (Thermococcus sp., UniProt Q56366, A485L/D141A/E143A/Y409V).
T1 construct: purchased New England Biolabs
T1 sequence (Q56366 1-775 D141A/E143A/Y409V/A485L): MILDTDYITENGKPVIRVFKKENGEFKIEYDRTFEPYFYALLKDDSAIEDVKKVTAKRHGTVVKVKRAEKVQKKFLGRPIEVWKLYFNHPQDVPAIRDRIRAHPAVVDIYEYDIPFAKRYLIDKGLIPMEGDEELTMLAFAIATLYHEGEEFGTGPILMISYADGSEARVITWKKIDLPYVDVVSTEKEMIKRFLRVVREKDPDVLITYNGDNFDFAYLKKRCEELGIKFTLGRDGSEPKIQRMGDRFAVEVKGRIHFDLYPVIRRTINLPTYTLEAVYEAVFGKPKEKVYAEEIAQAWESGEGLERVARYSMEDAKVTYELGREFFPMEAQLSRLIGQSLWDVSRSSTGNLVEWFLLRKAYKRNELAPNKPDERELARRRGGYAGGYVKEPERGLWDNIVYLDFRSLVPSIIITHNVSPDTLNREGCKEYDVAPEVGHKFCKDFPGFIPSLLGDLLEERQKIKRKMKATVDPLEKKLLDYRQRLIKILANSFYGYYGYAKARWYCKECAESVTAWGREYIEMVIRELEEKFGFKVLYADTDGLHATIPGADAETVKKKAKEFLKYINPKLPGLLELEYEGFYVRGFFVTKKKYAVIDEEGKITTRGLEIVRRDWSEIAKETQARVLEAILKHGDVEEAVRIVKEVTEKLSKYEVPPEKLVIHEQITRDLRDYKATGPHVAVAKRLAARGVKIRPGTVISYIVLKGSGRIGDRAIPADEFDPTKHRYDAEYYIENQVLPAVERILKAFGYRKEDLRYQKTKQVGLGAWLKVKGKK
The format is biochemical.

For the molecule `Cc1cn([C@H]2C[C@H](O[N+](=O)[O-])[C@@H](CO)O2)c(=O)[nH]c1=O` [Compound 2, 3′-O-Nitro-β-D-thymidine], the “cleavage of the nitrate group” value in data set [1] is “Quantitative cleavage”.
Consider `Cc1cn([C@H]2C[C@H](O[N+](=O)[O-])[C@@H](COP(=O)([O-])OP(=O)([O-])OP(=O)([O-])[O-])O2)c(=O)[nH]c1=O.[Na+].[Na+].[Na+].[Na+]` [Compound 3, 3′-O-Nitro-β-D-thymidine 5′-triphosphate, tetrasodium salt], for which, in data set [2], the “acceptance as substrate by Therminator II DNA polymerase” value is on record as “accepted as substrates”; the “incorporation by Therminator II DNA polymerase” value was “incorporated efficiently”; the “primer + dNTP MWfound” value is 5108.2 DA and 5108.1 DA and 5108.3 DA and 5108.4 DA.
